From patent US20230330254A1 (Regeneron Pharmaceuticals, Inc., priority 2022, published 2023)
Where a SMILES comes first, the peptide text is derived from it. [ ]: non-standard residue; d: D form. The star is where a group is joined. Bip(2'-Et,4'-O(CH2)4N3) = CCc1cc(OCCCCN=[N+]=[N-])ccc1-c1ccc(C[C@H](N)C(=O)O)cc1; Malonyl(2,2-Me2,histaminyl) = CC(C)(C(=O)NCCc1cnc[nH]1)C(=O)*; Nva(5-(3,5-Me2Ph)) = Cc1cc(C)cc(CCC[C@H](N)C(=O)O)c1; Ala(1H-tetrazol-5-yl) = N[C@@H](Cc1nnn[nH]1)C(=O)O; αMePhe(2-F) = C[C@](N)(Cc1ccccc1F)C(=O)O

How the values were obtained:
[1] = Plasma stability of payloads and linker-payloads, human plasma; type: in vitro ADME; details: 2 μM, 37° C., read-out: Human plasma stability assay T½ (converted)
Outline: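 Pooled plasma, pH adjusted to 7.4±0.1 where needed, spiked to 2 μM compound (duplicate) and incubated at 37 °C. At each time point, protein was precipitated with ACN/MeOH stop solution containing internal standards; remaining compound quantified in supernatant by LC-MS/MS.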

HEK293/CRE-Luc cells = test: Luciferase reporter assay, HEK293/CRE-Luc cells without hGLP1R (Example 11); type: cell-based, human; details: Experiment A
Outline: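 Counter-screen in HEK293 cells carrying CRE-driven firefly luciferase without hGLP1R; 3-fold serial dilutions of payloads or linker-payloads at 0.2% final DMSO, 4–6 h.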

human GLP1R [2] = target: T1, human GLP1R (Homo sapiens, UniProt P43220); test: CRE-luciferase reporter assay, HEK293/Myc-hGLP1R/Cre-Luc (Example 9); type: cell-based; set-up: engineered to express full-length human GLP1R, cynomolgus GLP1R; expressed in transfected cells; host or cells: HEK293/CRE-Luc; details: Table 9; 5.5 h; read-out: HEK293/Myc-hGLP1R/Cre-Luc EC50
T1 sequence (P43220 24-463): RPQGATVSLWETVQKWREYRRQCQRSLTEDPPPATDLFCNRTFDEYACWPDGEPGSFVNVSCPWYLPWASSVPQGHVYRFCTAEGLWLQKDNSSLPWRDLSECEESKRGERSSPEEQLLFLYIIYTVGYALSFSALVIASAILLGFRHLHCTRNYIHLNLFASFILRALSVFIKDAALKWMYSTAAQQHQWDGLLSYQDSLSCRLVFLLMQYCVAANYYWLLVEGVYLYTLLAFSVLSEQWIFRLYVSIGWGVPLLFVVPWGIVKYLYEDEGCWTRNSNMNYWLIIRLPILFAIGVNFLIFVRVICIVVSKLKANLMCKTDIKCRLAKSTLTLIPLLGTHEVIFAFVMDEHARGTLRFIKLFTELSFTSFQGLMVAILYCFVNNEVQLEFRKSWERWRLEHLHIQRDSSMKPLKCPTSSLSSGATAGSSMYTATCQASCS
Procedure: To test the activity of GLP1R agonist payloads and GLP1R agonist linker-payloads (LPs) in vitro, a cell-based cAMP responsive luciferase reporter assay was developed.
Cells were incubated overnight at 37° C. in 5% CO2. […] Plates were incubated for 5.5 h at 37° C. in 5% CO2. For end-point measurement, 100 μL/well of One-Glo reagent (Promega, #E6051) was added and plates were kept at room temperature for 5-10 minutes. Luciferase activity was measured on Envision Multilabel Plate Reader (Perkin Elmer) in Luminescent mode. The relative light units (RLU) values were obtained and the results were analyzed using nonlinear regression with GraphPad Prism software (GraphPad).

human GLP1R [3] = target: T1, human GLP1R; test: Luciferase reporter assay, HEK293/CRE-Luc/hGLP1R cells (Example 11); type: cell-based; set-up: engineered to express full-length human GLP1R, cynomolgus GLP1R; expressed in transfected cells; host or cells: HEK293/CRE-Luc
human GLP1R [4] = target: T1, human GLP1R; test: Human GLP1R cAMP accumulation assay; type: cell-based; set-up: HEK293 cells over-expressing full length human GLP-1R were utilized; expressed in transfected cells; host or cells: HEK293 (HEK293/hGLP1R)
Outline: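 cAMP accumulation measured after 30 min at 23° C, with 500 μM IBMX in HEPES-buffered HBSS plus 0.1% BSA, in HEK293 cells expressing full-length hGLP-1R. Levels read by D2-cAMP/antibody immunoassay via standard curve, scaled between low and high controls. EC50 fitted four-parameter over a 10-point curve.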

[5] = Liver microsome stability; type: in vitro ADME, human; details: human, microsomes, Table 7
Procedure: To assess the in vitro ADME properties of the LP, microsomal stability assay was performed to determine intrinsic clearance, and plasma protein binding assay was performed to understand the distribution potential.

[6] = Plasma stability of payloads and linker-payloads, mouse plasma; type: in vitro ADME; details: for half-life at 2 µM: mouse, pooled plasma
Procedure: The plasma stability of payloads and linker payloads of the disclosure were measured. For the assay, pooled frozen plasma (human, mouse or monkey) was thawed in cold water or a 37° C. water bath prior to experiment. Plasma was centrifuged at 4000 rpm for 5 min if any clots were observed, they were subsequently removed. If required, the pH was adjusted to 7.4±0.1. For the preparation of compounds and positive controls, a 1 mM intermediate solution was prepared by diluting 10 μL of their stock solution with 90 μL DMSO; a 1 mM intermediate solution of the positive control (Propantheline) was prepared by diluting 10 μL of its stock solution with 90 μL ultrapure water. Subsequently, 100 μM dosing solution for each compound was prepared by diluting 20 μL of the intermediate solution (1 mM) with 180 μL 45% MeOH/H2O. 98 μL of plasma was spiked with 2 μL of dosing solution (100 μM) to achieve the final concentration of 2 μM in duplicate. Samples were then incubated at 37° C. in a water bath. […] At each time point, 400 μL of stop solution (200 ng/mL tolbutamide plus 200 ng/mL labetalol in 50% ACN/MeOH) was added to precipitate protein and mixed thoroughly. Sample plates were then centrifuged at 4,000 rpm for 10 min. An aliquot of supernatant (50 μL) was transferred from each well and mixed with 100 μL ultrapure water. The samples were then shaken at 800 rpm for approximately 10 min before submitting for LC-MS/MS analysis.

## CCc1cc(OCCCCN=[N+]=[N-])ccc1-c1ccc(C[C@H](NC(=O)[C@H](CC(=O)O)NC(=O)[C@H](CO)NC(=O)[C@@H](NC(=O)[C@](C)(Cc2ccccc2F)NC(=O)[C@@H](NC(=O)CNC(=O)[C@H](Cc2nn[nH]n2)NC(=O)C(C)(C)C(=O)NCCc2cnc[nH]2)[C@@H](C)O)[C@@H](C)O)C(=O)N[C@@H](CCCc2cc(C)cc(C)c2)C(N)=O)cc1 [P8] ({Malonyl(2,2-Me2,histaminyl)}-[Ala(1H-tetrazol-5-yl)]GT[αMePhe(2-F)]TSD[Bip(2'-Et,4'-O(CH2)4N3)][Nva(5-(3,5-Me2Ph))]-NH2)
[1]; plasma, pH 7.4, tested time A (1 day per footnote)
  half-life at 2 µM: > 57.8 h
HEK293/CRE-Luc cells; Table 11, no hGLP1R expression
  EC50: > 200 nM
  HEK293/CRE-LUC S/N: 1.5
HEK293/CRE-Luc cells; Table 12
  EC50: > 20 nM
  HEK293/CRE-Luc S/N: 1.3
Human GLP1R [2]
  EC50: 0.0076 nM
Human GLP1R [3]; Table 11, Experiment A
  EC50: 0.00531 nM
  HEK293/CRE-LUC/hGLP1R Relative Potency (% P8 EC50): 100.0%
  HEK293/CRE-LUC/hGLP1R S/N: 65.8
Human GLP1R [3]; Table 11, Experiment B
  EC50: 0.02 nM
  HEK293/CRE-LUC/hGLP1R Relative Potency (% P8 EC50): 100.0%
  HEK293/CRE-LUC/hGLP1R S/N: 327.9
Human GLP1R [3]; Table 11, Experiment D
  EC50: 0.0273 nM
  HEK293/CRE-LUC/hGLP1R Relative Potency (% P8 EC50): 100.0%
  HEK293/CRE-LUC/hGLP1R Relative Signal:Noise (% P8): 100.0%
  HEK293/CRE-LUC/hGLP1R S/N: 235.9
Human GLP1R [3]; Table 12, Experiment A
  EC50: 0.0162 nM
  HEK293/CRE-Luc/hGLP1R Relative Potency (% P8 EC50): 100.0%
  HEK293/CRE-Luc/hGLP1R Relative Signal:Noise (% P8): 100.0%
  HEK293/CRE-Luc/hGLP1R S/N: 64.3
Human GLP1R [3]; Table 12, Experiment D
  EC50: 0.0273 nM
  HEK293/CRE-Luc/hGLP1R Relative Potency (% P8 EC50): 100.0%
  HEK293/CRE-Luc/hGLP1R Relative Signal:Noise (% P8): 100.0%
  HEK293/CRE-Luc/hGLP1R S/N: 235.9
Human GLP1R [4]; HEK293/hGLP1R cells, Table 4, read-out: cAMP EC50
  EC50: 0.497 nM

## C[C@]12CC[C@H]3[C@@H](CCC4=CC(=O)CC[C@@]43C)[C@@H]1CC[C@@H]2O [Testosterone]
[5]; read-out: CLint(liver)
  CLint scaled: 77.2 mL/min/kg
[5]; read-out: CLint(mic)
  microsomal CLint: 85.7 µL/min/mg

## CCc1cc(OC)ccc1-c1ccc(C[C@H](NC(=O)[C@H](CC(=O)O)NC(=O)[C@H](CO)NC(=O)[C@@H](NC(=O)[C@](C)(Cc2ccccc2F)NC(=O)[C@@H](NC(=O)CNC(=O)[C@H](Cc2nn[nH]n2)NC(=O)C(C)(C)C(=O)NCCc2cnc[nH]2)[C@@H](C)O)[C@@H](C)O)C(=O)N[C@@H](CCCc2ccc(OCCCCNC(=O)CCOCCOCCOCCOCCOCCOCCOCCOCCOCCOCCOCCOCCOCCOCCOCCOCCOCCOCCOCCOCCOCCOCCOCCOCCNC(=O)CCC(=O)N3Cc4ccccc4-c4c(nnn4CC4OC5OC6C(CO)OC(OC7C(CO)OC(OC8C(CO)OC(OC9C(CO)OC(OC%10C(CO)OC(OC4C(O)C5O)C(O)C%10O)C(O)C9O)C(O)C8O)C(O)C7O)C(O)C6O)-c4ccccc43)cc2)C(N)=O)cc1 (some centres unmarked) [LP23, cyclo-dex-trin-triazole-DIBAC-suc-PEG24-P24]
[1]; pooled plasma, pH 7.4, tested time B (2 hrs per footnote)
  half-life at 2 µM: > 4.8 h
[6]; Mouse, assay time 2 hr, Table 5B
  plasma stability T½: >4 h
[6]; pH 7.4, Mouse, assay time 2 hr, Table 5B, read-out: plasma stability T½
  half-life at 2 µM: > 4 h
[6]; pH 7.4, Table 5A, mouse plasma, tested time B (2 hrs), read-out: plasma stability T½ (hr), mouse
  half-life at 2 µM: > 4.8 h
Human GLP1R [4]
  EC50: 0.534 nM
